Experimental data from publication PMC9455983 (International Journal of Molecular Sciences, 2022).
Read-outs that look alike come from different tables or passages of the source.

Experiments:
[1] = target: T1, delta-opioid receptor (DOR) (Rattus norvegicus, UniProt P33533); assay: DOR radioligand competition binding assay ([3H]-DPDPE); conditions: Delta screening results
T1 construct: Rat cortices were homogenized using 50 mM Tris, pH 7.4, 10 mM MgCl2-6H2O, 200 µM PMSF; from tissue; host or cells: rat cortex membranes
Protocol: DOR binding assay: Rat cortices were homogenized using 50 mM Tris, pH 7.4, 10 mM MgCl2-6H2O, 200 µM PMSF, centrifuged and incubated as above. Each assay tube contained 2 nM [^3H]-DPDPE. Assay tubes were incubated for 2.5 h at 25 °C. Unlabeled DPDPE was used as a competitor to generate a standard curve and determine nonspecific binding.
(§1) All three binding assays were terminated by filtration through GF/B filters, soaked in 5 mg/mL bovine serum albumin, 50 mM Tris, pH 7.4, on a Tomtec Mach II Harvester 96. The filters were subsequently washed with 6 mL of assay buffer. Bound radioactivity was counted on a Wallac Betaplate Liquid Scintillation Counter. Experiments were conducted using two replicates and repeated twice. Values in Scheme 2 represent the mean ± SD of two experiments with two replicates in each test.

[2] = target: T2, kappa-opioid receptor (KOR) (Cavia porcellus, UniProt P41144); assay: KOR radioligand competition binding assay ([3H]U69,593); parameters: species or system guinea pig; conditions: Kappa screening results
T2 construct: Guinea pig cortices and cerebella were homogenized using 50 mM Tris, pH 7.4; from tissue; host or cells: guinea pig cortex and cerebellum membranes
Protocol: KOR binding assay: Guinea pig cortices and cerebella were homogenized using 50 mM Tris, pH 7.4, 10 mM MgCl2-6H2O, […] centrifuged and incubated as above. Each assay tube contained 2 nM [^3H]U69,593. Assay tubes were incubated for 2 h at 25 °C. Unlabeled U50,488 was used as a competitor to generate a standard curve and determine nonspecific binding.
as §1

mu-opioid receptor (MOR) = target: T3, mu-opioid receptor (MOR) (Rattus norvegicus, UniProt P33535); assay: MOR radioligand competition binding assay ([3H]-DAMGO); conditions: Mu screening results
T3 construct: Rat cortices were homogenized using 50 mM Tris, pH 7.4, and centrifuged at 16,500 rpm for 10 min; from tissue; host or cells: rat cortex membranes
Protocol: MOR binding assay: Rat cortices were homogenized using 50 mM Tris, pH 7.4, and centrifuged at 16,500 rpm for 10 min. The pellets were resuspended in fresh buffer and incubated at 37 °C for 30 min. Following incubation, the suspensions were centrifuged as before, the resulting pellets were resuspended in 100 volumes of 50 mM Tris, pH 7.4 plus 2 mg/mL bovine serum and the suspensions combined. Each assay tube contained 0.5 mL of membrane suspension, 2 nM [^3H]-DAMGO, and 0.02 mg/mL mixture in a total volume of 0.65 mL [13, 45, 53, 55].
as §1

[3] = first Ki column, unit not printed (apparently M), read-out: Ki (first column)
[4] = mean of both Ki, unit inferred, read-out: MEAN (Ki)
[5] = mean of two experiments, read-out: Ki
[6] = second Ki column, unit not printed (apparently M), read-out: Ki (second column)
[7] = experiment 1, unit inferred, read-out: Ki (Exp 1)
[8] = experiment 2, unit inferred, read-out: Ki (Exp 2)
[9] = mean of Exp 1 and Exp 2, unit inferred, read-out: MEAN (Ki)

| Compound | Ki [1, 3] | Ki [1, 4] | Ki [1, 5] | Ki [1, 6] | Ki [2, 7] | Ki [2, 8] | Ki [2, 9] | Ki [2, 5] | Ki (mu-opioid receptor (MOR); [7]) | Ki (mu-opioid receptor (MOR); [8]) | Ki (mu-opioid receptor (MOR); [9]) | Ki (mu-opioid receptor (MOR); [5]) |
| --- | --- | --- | --- | --- | --- | --- | --- | --- | --- | --- | --- | --- |
| CC(C)C[C@@H](CN1C(=N)NC[C@@H]1Cc1ccc(O)cc1)N1C[C@H](Cc2ccc(O)cc2)NC1=N [1968-26] | 7.48 µM | 8.07 µM | 8.07 µM | 8.67 µM | 15.8 µM | 13.2 µM | 14.5 µM | 14.5 µM | 0.781 µM | 0.751 µM | 0.766 µM | 0.766 µM |
| Cc1cc(O)cc(C)c1C[C@H]1CNC(=N)N1C[C@H](Cc1c(C)cc(O)cc1C)N1C[C@H](CC(C)C)NC1=N [1968-63] | 2.27 µM | 2.39 µM | 2.39 µM | 2.51 µM | 1.64 µM | 1.47 µM | 1.55 µM | 1.55 µM | 0.0628 µM | 0.0988 µM | 0.0808 µM | 0.081 µM |
| Cc1cc(O)cc(C)c1C[C@H]1CNC(=N)N1C[C@H](Cc1c(C)cc(O)cc1C)N1C[C@H](Cc2ccccc2)NC1=N [1968-61] | 1.06 µM | 1.02 µM | 1.02 µM | 0.985 µM | 0.877 µM | 1.23 µM | 1.05 µM | 1.05 µM | 0.0403 µM | 0.0565 µM | 0.0484 µM | 0.048 µM |
| CC(C)C[C@H]1CN([C@@H](CC(C)C)CN2C(=N)NC[C@@H]2C)C(=N)N1 [1968-43] | 9.25 µM | 7.97 µM | 7.97 µM | 6.69 µM | 36 µM | 53 µM | 44.5 µM | 44.5 µM | 7.81 µM | 10.7 µM | 9.26 µM | 9.26 µM |
| Cc1cc(O)cc(C)c1C[C@H]1CNC(=N)N1C[C@H](CC(C)C)N1C[C@H](Cc2ccc(O)cc2)NC1=N [1968-58] | 1.15 µM | 0.896 µM | 0.896 µM | 0.638 µM | 0.542 µM | 0.775 µM | 0.659 µM | 0.659 µM | 0.0551 µM | 0.062 µM | 0.0586 µM | 0.059 µM |
| Cc1cc(O)cc(C)c1C[C@H]1CN([C@@H](Cc2ccccc2)CN2C(=N)NC[C@@H]2C)C(=N)N1 [1968-36] | 3.71 µM | 3.55 µM | 3.55 µM | 3.4 µM | 1.03 µM | 1.32 µM | 1.17 µM | 1.17 µM | 0.167 µM | 0.124 µM | 0.146 µM | 0.146 µM |
| Cc1cc(O)cc(C)c1C[C@H]1CN([C@@H](Cc2ccccc2)CN2C(=N)NC[C@@H]2Cc2ccc(O)cc2)C(=N)N1 [1968-20] | 0.877 µM | 0.853 µM | 0.853 µM | 0.829 µM | 0.977 µM | 0.659 µM | 0.818 µM | 0.818 µM | 0.0747 µM | 0.0803 µM | 0.0775 µM | 0.077 µM |
| CC(C)C[C@@H](CN1C(=N)NC[C@@H]1C)N1C[C@H](Cc2ccc(O)cc2)NC1=N [1968-42] | 20.6 µM | 55.7 µM | 55.7 µM | 90.8 µM | 12.3 µM | 12.3 µM | 12.3 µM | 12.3 µM | 2.13 µM | 2.47 µM | 2.3 µM | 2.3 µM |
| Cc1cc(O)cc(C)c1C[C@H]1CNC(=N)N1C[C@H](Cc1ccccc1)N1C[C@H](Cc2ccc(O)cc2)NC1=N [1968-50] | 1.1 µM | 0.896 µM | 0.896 µM | 0.69 µM | 1.9 µM | 1.74 µM | 1.82 µM | 1.82 µM | 0.0616 µM | 0.114 µM | 0.0878 µM | 0.088 µM |
| Cc1cc(O)cc(C)c1C[C@H]1CN([C@@H](CC(C)C)CN2C(=N)NC[C@@H]2Cc2ccccc2)C(=N)N1 [1968-12] | 1.95 µM | 1.85 µM | 1.85 µM | 1.75 µM | 1.03 µM | 1.29 µM | 1.16 µM | 1.16 µM | 0.0674 µM | 0.0659 µM | 0.0666 µM | 0.067 µM |
| Cc1cc(O)cc(C)c1C[C@H]1CNC(=N)N1C[C@H](CC(C)C)N1C[C@H](CC(C)C)NC1=N [1968-59] | 3.84 µM | 4.21 µM | 4.21 µM | 4.58 µM | 0.223 µM | 0.313 µM | 0.268 µM | 0.268 µM | 0.166 µM | 0.156 µM | 0.161 µM | 0.161 µM |
| Cc1cc(O)cc(C)c1C[C@@H](CN1C(=N)NC[C@@H]1Cc1ccccc1)N1C[C@H](CC(C)C)NC1=N [1968-15] | 1.07 µM | 1.25 µM | 1.25 µM | 1.44 µM | 0.568 µM | 0.504 µM | 0.536 µM | 0.536 µM | 0.35 µM | 0.26 µM | 0.305 µM | 0.305 µM |
| N=C1NC[C@H](Cc2ccccc2)N1C[C@H](Cc1ccc(O)cc1)N1C[C@H](Cc2ccccc2)NC1=N [1968-5] | 6.4 µM | 9.23 µM | 9.23 µM | 12.1 µM | 3.95 µM | 3.73 µM | 3.84 µM | 3.84 µM | 0.925 µM | 0.671 µM | 0.798 µM | 0.798 µM |
| Cc1cc(O)cc(C)c1C[C@@H](CN1C(=N)NC[C@@H]1Cc1ccc(O)cc1)N1C[C@H](Cc2ccc(O)cc2)NC1=N [1968-30] | 1.34 µM | 1.2 µM | 1.2 µM | 1.07 µM | 1.73 µM | 1.76 µM | 1.74 µM | 1.74 µM | 0.0988 µM | 0.127 µM | 0.113 µM | 0.113 µM |
| C[C@H]1CNC(=N)N1C[C@H](Cc1ccc(O)cc1)N1C[C@H](Cc2ccc(O)cc2)NC1=N [1968-38] | 4.27 µM | 3.8 µM | 3.8 µM | 3.33 µM | 1.69 µM | 1.96 µM | 1.82 µM | 1.82 µM | 0.174 µM | 0.195 µM | 0.184 µM | 0.184 µM |
| Cc1cc(O)cc(C)c1C[C@H]1CN([C@@H](CC(C)C)CN2C(=N)NC[C@@H]2C)C(=N)N1 [1968-44] | 10.2 µM | 7.63 µM | 7.63 µM | 5.06 µM | 1.83 µM | 1.42 µM | 1.63 µM | 1.63 µM | 0.157 µM | 0.244 µM | 0.2 µM | 0.2 µM |
| N=C1NC[C@H](Cc2ccc(O)cc2)N1C[C@H](Cc1ccc(O)cc1)N1C[C@H](Cc2ccccc2)NC1=N [1968-21] | 7.83 µM | 7.73 µM | 7.73 µM | 7.63 µM | 3.59 µM | 3.29 µM | 3.44 µM | 3.44 µM | 0.175 µM | 0.199 µM | 0.187 µM | 0.187 µM |
| CC(C)C[C@@H](CN1C(=N)NC[C@@H]1Cc1ccc(O)cc1)N1C[C@H](Cc2ccccc2)NC1=N [1968-25] | 25.4 µM | 30.5 µM | 30.5 µM | 35.7 µM | 6.55 µM | 3.32 µM | 4.93 µM | 4.93 µM | 0.707 µM | 0.725 µM | 0.716 µM | 0.716 µM |
| Cc1cc(O)cc(C)c1C[C@H]1CN([C@@H](CC(C)C)CN2C(=N)NC[C@@H]2Cc2ccc(O)cc2)C(=N)N1 [1968-28] | 4.8 µM | 5.07 µM | 5.07 µM | 5.34 µM | 0.84 µM | 1.4 µM | 1.12 µM | 1.12 µM | 0.118 µM | 0.119 µM | 0.118 µM | 0.118 µM |
